Experiments:
windgrass = assay: Test Example 4: herbicidal effect by soil treatment (Table 19, symbol L); assay type: in vivo, windgrass (Apera spica-venti)
Summary of the method: (§1)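 Three weeks of greenhouse growth at 25° C. to 30° C. followed a uniform surface spray of water-diluted emulsion at a predetermined herbicide amount. Seeds had been sown beforehand under about 1.5 cm of sterilized diluvial soil. Grading followed criteria set out in an earlier test.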

redroot pigweed = assay: Test Example 5: herbicidal effect by foliage application, plastic box (Table 20, symbol N); assay type: in vivo, redroot pigweed (Amaranthus retroflexus); details: foliage application
Summary of the method: (§2)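 Plants sown in sterilized diluvial soil and grown 14 days in a greenhouse at 25° C to 30° C, then sprayed on the foliage with the compound's emulsion diluted in water to a predetermined herbicide amount. Injury to weeds and crops scored three weeks after application on a visual rating scale.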

green foxtail [1] = assay: Test Example 4: herbicidal effect by soil treatment (Table 19, symbol G); assay type: in vivo, green foxtail (Setaria viridis)
Summary of the method: as §1

Japanese bulrush = assay: Test Example 2: herbicidal activity, application during weed generation under submerged conditions (Table 17, symbol B); assay type: in vivo, Japanese bulrush (Schoenoplectus juncoides)
Summary of the method: (§3)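 Herbicide emulsion, diluted with water to the chosen amount, is applied onto 4 cm floodwater over alluvial soil where the weeds were co-sown and raised at 25–30° C. Application timing: 1–2 leaves. Assessment: three weeks afterwards.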

velvetleaf [2] = assay: Test Example 5: herbicidal effect by foliage application, plastic box (Table 20, symbol M); assay type: in vivo, velvetleaf (Abutilon theophrasti); details: foliage application
Summary of the method: as §2

chickweed [3] = assay: Test Example 4: herbicidal effect by soil treatment (Table 19, symbol P); assay type: in vivo, common chickweed (Stellaria media)
Summary of the method: as §1

chickweed [4] = assay: Test Example 5: herbicidal effect by foliage application, plastic box (Table 20, symbol P); assay type: in vivo, common chickweed (Stellaria media); details: foliage application
Summary of the method: as §2

lambsquarters = assay: Test Example 4: herbicidal effect by soil treatment (Table 19, symbol O); assay type: in vivo, lambsquarters (Chenopodium album)
Summary of the method: as §1

late watergrass [5] = assay: Test Example 1: herbicidal activity, application before weed generation under submerged conditions (Table 16, symbol A); assay type: in vivo, late watergrass (Echinochloa oryzicola)
Summary of the method: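 Alluvial soil was flooded to 4 cm depth, weed seeds were sown mixed and 2.5-leaf rice seedlings were transplanted. On sowing day, the compound's emulsion, diluted in water to a set dose, was applied to the water surface. Plants grew at 25–30 °C and were scored 0–5 after three weeks.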

persian speedwell = assay: Test Example 4: herbicidal effect by soil treatment (Table 19, symbol R); assay type: in vivo, Persian speedwell (Veronica persica)
Summary of the method: as §1

rice flat sedge = assay: Test Example 3: herbicidal effect by foliage application, Wagner pot (Table 18, symbol E); assay type: in vivo, rice flat sedge (Cyperus iria)
Summary of the method: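 Plants were sown in alluvial soil held under 0.1–0.5 cm standing water and grown 14 days in a greenhouse at 25–30 °C. An emulsifiable formulation, water-diluted to the set dose, was then sprayed onto the foliage, and effects were scored three weeks later using previously defined criteria.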

velvetleaf [6] = assay: Test Example 4: herbicidal effect by soil treatment (Table 19, symbol M); assay type: in vivo, velvetleaf (Abutilon theophrasti)
Summary of the method: as §1

late watergrass [7] = assay: Test Example 2: herbicidal activity, application during weed generation under submerged conditions (Table 17, symbol A); assay type: in vivo, late watergrass (Echinochloa oryzicola)
Summary of the method: as §3

green foxtail [8] = assay: Test Example 5: herbicidal effect by foliage application, plastic box (Table 20, symbol G); assay type: in vivo, green foxtail (Setaria viridis); details: foliage application
Summary of the method: as §2

oval-leafed pondweed = assay: Test Example 2: herbicidal activity, application during weed generation under submerged conditions (Table 17, symbol C); assay type: in vivo, oval-leafed pondweed (Monochoria vaginalis)
Summary of the method: as §3

barnyard grass = assay: Test Example 4: herbicidal effect by soil treatment (Table 19, symbol H); assay type: in vivo, barnyard grass (Echinochloa crus-galli)
Summary of the method: as §1

Italian ryegrass = assay: Test Example 5: herbicidal effect by foliage application, plastic box (Table 20, symbol K); assay type: in vivo, Italian ryegrass (Lolium multiflorum); details: foliage application
Summary of the method: as §2

[9] = amount of applied herbicide 320 g/ha
[10] = 320 g/ha, evaluated 3 weeks after application
[11] = application during weed generation under submerged conditions, amount of applied herbicide 320 g/ha
[12] = amount of applied herbicide 214 g/ha
[13] = 214 g/ha, three weeks after application
[14] = AAH 214 g/ha, application during weed generation, submerged conditions

## CCCC(=O)Oc1c(C)nn(C)c(=O)c1-c1c(-c2ccc(COC)cc2)oc2ccc(C)cc12 [9-062]
windgrass; [9]
  L: windgrass, herbicidal effect grade: 0 (Herbicidal rate of 5% or less (almost no effect))
Redroot pigweed; [10]
  N (redroot pigweed) herbicidal effect grade: 5 (Herbicidal rate of 90% or more (almost completely withered))
Green foxtail [1]; [9]
  G: green foxtail, herbicidal effect grade: 5 (Herbicidal rate of 90% or more (almost completely withered))
Japanese bulrush; [11]
  herbicidal effect grade, B: Japanese bulrush: 3 (Herbicidal rate of 40% or more and less than 70%)
Velvetleaf [2]; [10]
  M (velvetleaf) herbicidal effect grade: 5 (Herbicidal rate of 90% or more (almost completely withered))
Chickweed [3]; [9]
  P: chickweed, herbicidal effect grade: 3 (Herbicidal rate of 40% or more and less than 70%)
Chickweed [4]; [10]
  P (chickweed) herbicidal effect grade: 5 (Herbicidal rate of 90% or more (almost completely withered))
lambsquarters; [9]
  O: lambsquarters, herbicidal effect grade: 4 (Herbicidal rate of 70% or more and less than 90%)
Late watergrass [5]; [9]
  Herbicidal effect, A: late watergrass: 5 (Herbicidal rate of 90% or more (almost completely withered))
Persian speedwell; [9]
  R: persian speedwell, herbicidal effect grade: 5 (Herbicidal rate of 90% or more (almost completely withered))
Rice flat sedge; [9]
  Herbicidal effect on E (rice flat sedge), foliage application: 5 (Herbicidal rate of 90% or more (almost completely withered))
Velvetleaf [6]; [9]
  M: velvetleaf, herbicidal effect grade: 5 (Herbicidal rate of 90% or more (almost completely withered))
Late watergrass [7]; [11]
  herbicidal effect grade, A: late watergrass: 3 (Herbicidal rate of 40% or more and less than 70%)
Green foxtail [8]; [10]
  G (green foxtail) herbicidal effect grade: 5 (Herbicidal rate of 90% or more (almost completely withered))
oval-leafed pondweed; [11]
  herbicidal effect grade, C: oval-leafed pondweed: 3 (Herbicidal rate of 40% or more and less than 70%)
Barnyard grass; [9]
  H: barnyard grass, herbicidal effect grade: 4 (Herbicidal rate of 70% or more and less than 90%)
Italian ryegrass; [10]
  K (Italian ryegrass) herbicidal effect grade: 5 (Herbicidal rate of 90% or more (almost completely withered))

## COc1ccc2c(-c3c(O)c(C)nn(C)c3=O)c(-c3ccccc3OC)sc2c1 [Compound No. 3-065, 5-hydroxy-4-(6-methoxy-2-(2-methoxyphenyl)benzo[b]thiophen-3-yl)-2,6-dimethylpyridazin-3(2H)-one]
windgrass; [12]
  L: windgrass, herbicidal effect grade: 3 (Herbicidal rate of 40% or more and less than 70%)
Redroot pigweed; [13]
  N: redroot pigweed, herbicidal effect grade: 3 (Herbicidal rate of 40% or more and less than 70%)
Green foxtail [1]; [12]
  G: green foxtail, herbicidal effect grade: 5 (Herbicidal rate of 90% or more (almost completely withered))
Japanese bulrush; [14]
  herbicidal effect rating, B: Japanese bulrush: 1 (Herbicidal rate of 5% or more and less than 20%)
Velvetleaf [2]; [13]
  M: velvetleaf, herbicidal effect grade: 5 (Herbicidal rate of 90% or more (almost completely withered))
Chickweed [3]; [12]
  P: chickweed, herbicidal effect grade: 5 (Herbicidal rate of 90% or more (almost completely withered))
Chickweed [4]; [13]
  P: chickweed, herbicidal effect grade: 5 (Herbicidal rate of 90% or more (almost completely withered))
lambsquarters; [12]
  O: lambsquarters, herbicidal effect grade: 4 (Herbicidal rate of 70% or more and less than 90%)
Late watergrass [5]; [12]
  Herbicidal effect, A: late watergrass: 1 (Herbicidal rate of 5% or more and less than 20%)
Persian speedwell; [12]
  R: persian speedwell, herbicidal effect grade: 5 (Herbicidal rate of 90% or more (almost completely withered))
Rice flat sedge; 214 g/ha
  herbicidal effect on rice flat sedge (E): 5 (Herbicidal rate of 90% or more (almost completely withered))
Velvetleaf [6]; [12]
  M: velvetleaf, herbicidal effect grade: 0 (Herbicidal rate of 5% or less (almost no effect))
Late watergrass [7]; [14]
  herbicidal effect rating, A: late watergrass: 0 (Herbicidal rate of 5% or less (almost no effect))
Green foxtail [8]; [13]
  G: green foxtail, herbicidal effect grade: 5 (Herbicidal rate of 90% or more (almost completely withered))
oval-leafed pondweed; [14]
  herbicidal effect rating, C: oval-leafed pondweed: 3 (Herbicidal rate of 40% or more and less than 70%)
Barnyard grass; [12]
  H: barnyard grass, herbicidal effect grade: 5 (Herbicidal rate of 90% or more (almost completely withered))
Italian ryegrass; [13]
  K: Italian ryegrass, herbicidal effect grade: 4 (Herbicidal rate of 70% or more and less than 90%)

Reference: US20230085307A1, “PYRIDAZINONE COMPOUND AND HERBICIDE” (NISSAN CHEMICAL CORPORATION, priority 2019, published 2023)
